Data set [1] has as its target T1, human PDHK2 (hPDHK2) (Homo sapiens, UniProt Q15119).
T1 construct: made in house; host or cells: Escherichia coli BL21(DE3), pET17b vector
The data set can be described thus: Inhibitory action of PDHK2 activity in vitro (residual PDH activity after kinase reaction). Format: biochemical. The note with it: PDH/hPDHK2 complex, 45 min kinase reaction at room temperature; read-out: hPDHK2 IC50. As to the method:
The inhibitory action of PDHK activity was assessed indirectly by measuring the residual PDH activity after kinase reaction in the presence of a test compound.
In the case of human PDHK2 (hPDHK2, Genbank Accession No. BC040478.1), modified hPDHK2 cDNA wherein FLAG-Tag sequence was added to the N terminus of hPDHK2 cDNA clone (pReceiver-M01/PDK2-GeneCopoeia) was prepared by PCR and cloned into a vector (pET17b-Novagen). The recombinant construct was transformed into Escherichia coli (DH5α-TOYOBO). The recombinant clones were identified, and plasmid DNA was isolated and subjected to the DNA sequence analysis. One clone which had the expected nucleic acid sequence was selected for expression work.
For expression of hPDHK2 activity, Escherichia coli strain BL21(DE3) cells (Novagen) were transformed with the pET17b vector containing modified hPDHK2 cDNA. The Escherichia coli were grown to an optical density 0.6 ([…]) at 30° C. Protein expression was induced by the addition of 500 μmol/L isopropyl-β-thiogalactopyranoside. The Escherichia coli were cultured at 30° C. for 5 hr and harvested by centrifugation. Resuspension of the Escherichia coli paste was disrupted by a microfluidizer. FLAG-Tagged protein was purified using FLAG affinity gel. The gel was washed with 20 mmol/L HEPES-NaOH, 500 mmol/L sodium chloride, 1% ethylene glycol, and 0.1% Pluronic F-68 (pH 8.0), and the binding protein was eluted with 20 mmol/L HEPES-NaOH, 100 μg/mL FLAG peptide, 500 mmol/L sodium chloride, 1% ethylene glycol, and 0.1% Pluronic F-68 (pH 8.0). The eluted fractions containing FLAG-Tagged protein were pooled, dialyzed against 20 mmol/L HEPES-NaOH, 150 mmol/L sodium chloride, 0.5 mmol/L EDTA, 1% ethylene glycol, and 0.1% Pluronic F-68 (pH 8.0), and preserved at −80° C.
0.05 U/mL PDH and 0.8 μg/mL hPDHK2 were mixed in a buffer (50 mmol/L 3-morpholinopropanesulfonic acid (pH 7.0), 20 mmol/L dipotassium hydrogen phosphate, 60 mmol/L potassium chloride, 2 mmol/L magnesium chloride, 0.4 mmol/L EDTA, and 0.2% Pluronic F-68, 2 mmol/L dithiothreitol), and the mixture was incubated at 4° C. overnight to obtain a PDH/hPDHK2 complex. The test compounds were diluted with DMSO. […] DMSO (1.5 μL) was added to control wells instead of the test compound. […] The mixture was incubated at room temperature for 90 min, and the residual PDH activity was measured. The absorbance at 340 nm before and after PDH reaction was measured using a microplate reader to detect NADH produced by the PDH reaction. The hPDHK2 inhibition rate (%) of the test compound was calculated from the formula [{(PDH activity of test compound−PDH activity of control)/PDH activity of blank−PDH activity of control)}×100].

Data set [2] is described as follows: Metabolic stability test in human liver microsome. The format is in vitro ADME. As to conditions: 37° C., 5 μM. How it is done: Human liver microsome (manufactured by Xenotech, H0620, final concentration (after dilution), 0.2 mg protein/mL) was suspended in 100 mM potassium phosphate buffer (pH 7.4, containing β-nicotinamide adenine dinucleotide phosphate: 1.3 mM, D-glucose-6-phosphate: 3.3 mM, magnesium chloride: 3.3 mM, glucose-6-phosphate dehydrogenase: 0.45 U/mL), and further mixed with a test compound dissolved in MeCN/DMSO (95/5) (final concentration 5 μM). The mixture was incubated at 37° C. for 10 min and 60 min, acetonitrile containing formic acid (final concentration 0.1%) was added, and the mixture was centrifuged. The test compound (unmodified) in the supernatant was measured by high performance liquid chromatography/mass spectrometry (LC/MS) (manufactured by Waters, LC: Acquity UPLC, MS:SQ Detector or TQ Detector). The residual ratio (%) was calculated from the obtained measurement value.
(In general: Liver microsomes are a subcellular fraction often used to study metabolism.)

As a reminder, the IC50 is the concentration needed to halve the response being measured.

In the case of `C[C@H](O)COc1cc(-c2cnn(C(C)(C)C(N)=O)c2)c2c(c1)[C@@](O)(C(F)(F)F)c1ccccc1-2` [compound (2), 2-(4-{(9R)-9-hydroxy-2-[(2S)-2-hydroxypropoxy]-9-(trifluoromethyl)-9H-fluoren-4-yl}-1H-pyrazol-1-yl)-2-methylpropanamide], in data set [1], the IC50 is 4.9 nM. In addition, the “stability in liver microsome (residual ratio %)” value in data set [2] (10 min) is 98.9%; in data set [2] (60 min), 97.2%.

With `Cn1cc(-c2cc(OCC(C)(C)O)cc3c2-c2ccccc2[C@]3(O)C(F)(F)F)cn1` [compound (B), (9R)-2-(2-Hydroxy-2-methylpropoxy)-4-(1-methyl-1H-pyrazol-4-yl)-9-(trifluoromethyl)-9H-fluoren-9-ol, reference compound], the IC50 in data set [1] came out at 7.4 nM. The “stability in liver microsome (residual ratio %)” value in data set [2] (10 min) worked out at 98.0%; in data set [2] (60 min), 88.2%.

For the origin of these results see US20150018403A1, “FLUORENE-AMIDE COMPOUNDS AND PHARMACEUTICAL USE THEREOF” (JAPAN TOBACCO INC., priority 2013, published 2015).
